Assay results published in PubChem BioAssay (NCI).
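Five concentrations, 48 hours, 96-well plates. Here, GI50 denotes the concentration required for 50% inhibition of growth. TGI: total growth inhibition.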

Experiments:
Assay in all cases: inhibition of tumour cell growth, NCI panel, 48 h
786-0 renal = system: 786-0 renal
A549 NSCLC = system: A549 NSCLC
ACHN renal = system: ACHN renal
BT-549 breast = system: BT-549 breast
CAKI-1 renal = system: CAKI-1 renal
CCRF-CEM leukemia = system: CCRF-CEM leukemia
COLO 205 colon = system: COLO 205 colon
DU-145 prostate = system: DU-145 prostate
EKVX NSCLC = system: EKVX NSCLC
HCC-2998 colon = system: HCC-2998 colon
HCT-116 colon = system: HCT-116 colon
HCT-15 colon = system: HCT-15 colon
HL-60(TB) leukemia = system: HL-60(TB) leukemia
HOP-62 NSCLC = system: HOP-62 NSCLC
HOP-92 NSCLC = system: HOP-92 NSCLC
HT29 colon = system: HT29 colon
IGROV1 ovarian = system: IGROV1 ovarian
K-562 leukemia = system: K-562 leukemia
KM12 colon = system: KM12 colon
LOX IMVI melanoma = system: LOX IMVI melanoma
M14 melanoma = system: M14 melanoma
MDA-MB-231 breast = system: MDA-MB-231 breast
MDA-MB-435 = system: MDA-MB-435
MOLT-4 leukemia = system: MOLT-4 leukemia
NCI-H226 lung = system: NCI-H226 lung
NCI-H23 lung = system: NCI-H23 lung
NCI-H460 lung = system: NCI-H460 lung
NCI-H522 lung = system: NCI-H522 lung
NCI/ADR-RES ovarian = system: NCI/ADR-RES ovarian
OVCAR-3 ovarian = system: OVCAR-3 ovarian
OVCAR-4 ovarian = system: OVCAR-4 ovarian
OVCAR-5 ovarian = system: OVCAR-5 ovarian
OVCAR-8 ovarian = system: OVCAR-8 ovarian
PC-3 prostate = system: PC-3 prostate
RXF 393 renal = system: RXF 393 renal
SF-268 CNS = system: SF-268 CNS
SF-295 CNS = system: SF-295 CNS
SK-MEL-2 melanoma = system: SK-MEL-2 melanoma
SK-MEL-28 melanoma = system: SK-MEL-28 melanoma
SK-MEL-5 melanoma = system: SK-MEL-5 melanoma
SK-OV-3 ovarian = system: SK-OV-3 ovarian
SN12C renal = system: SN12C renal
SNB-19 CNS = system: SNB-19 CNS
SR leukemia = system: SR leukemia
SW-620 colon = system: SW-620 colon
T-47D breast = system: T-47D breast
TK-10 renal = system: TK-10 renal
U251 CNS = system: U251 CNS
UACC-257 melanoma = system: UACC-257 melanoma
UACC-62 melanoma = system: UACC-62 melanoma
UO-31 renal = system: UO-31 renal

Compound: O=Cc1ccc(-c2ccc(-c3nc4ccccc4o3)cc2)s1
- GI50 (786-0 renal): 31.9 µM
- TGI (786-0 renal): > 100 µM
- GI50 (A549 NSCLC): 70.5 µM
- TGI (A549 NSCLC): > 100 µM
- GI50 (ACHN renal): 31.5 µM
- TGI (ACHN renal): > 100 µM
- GI50 (BT-549 breast): 18 µM
- TGI (BT-549 breast): 52.6 µM
- GI50 (CAKI-1 renal): 25.2 µM
- TGI (CAKI-1 renal): 61.1 µM
- GI50 (CCRF-CEM leukemia): 5.68 µM
- TGI (CCRF-CEM leukemia): > 100 µM
- GI50 (COLO 205 colon): 32.1 µM
- TGI (COLO 205 colon): > 100 µM
- GI50 (DU-145 prostate): 26.3 µM
- TGI (DU-145 prostate): > 100 µM
- GI50 (EKVX NSCLC): 20.3 µM
- TGI (EKVX NSCLC): 77 µM
- GI50 (HCC-2998 colon): 45.2 µM
- TGI (HCC-2998 colon): > 100 µM
- GI50 (HCT-116 colon): 19.3 µM
- TGI (HCT-116 colon): 42.6 µM
- GI50 (HCT-15 colon): 34.2 µM
- TGI (HCT-15 colon): > 100 µM
- GI50 (HL-60(TB) leukemia): 12.7 µM
- TGI (HL-60(TB) leukemia): > 100 µM
- GI50 (HOP-62 NSCLC): 27.9 µM
- TGI (HOP-62 NSCLC): 82 µM
- GI50 (HOP-92 NSCLC): > 100 µM
- TGI (HOP-92 NSCLC): > 100 µM
- GI50 (HT29 colon): 53.8 µM
- TGI (HT29 colon): > 100 µM
- GI50 (IGROV1 ovarian): 30.1 µM
- TGI (IGROV1 ovarian): > 100 µM
- GI50 (K-562 leukemia): 37 µM
- TGI (K-562 leukemia): > 100 µM
- GI50 (KM12 colon): 30.3 µM
- TGI (KM12 colon): > 100 µM
- GI50 (LOX IMVI melanoma): 16.7 µM
- TGI (LOX IMVI melanoma): 36 µM
- GI50 (M14 melanoma): 26.6 µM
- TGI (M14 melanoma): 70 µM
- GI50 (MDA-MB-231 breast): 21.9 µM
- TGI (MDA-MB-231 breast): 55.2 µM
- GI50 (MDA-MB-435): 24.1 µM
- TGI (MDA-MB-435): 77.9 µM
- GI50 (MOLT-4 leukemia): 21.6 µM
- TGI (MOLT-4 leukemia): > 100 µM
- GI50 (NCI-H226 lung): 31.5 µM
- TGI (NCI-H226 lung): 90.2 µM
- GI50 (NCI-H23 lung): 30.2 µM
- TGI (NCI-H23 lung): > 100 µM
- GI50 (NCI-H460 lung): 23.7 µM
- TGI (NCI-H460 lung): 85.3 µM
- GI50 (NCI-H522 lung): 47.3 µM
- TGI (NCI-H522 lung): > 100 µM
- GI50 (NCI/ADR-RES ovarian): 27.2 µM
- TGI (NCI/ADR-RES ovarian): 79.4 µM
- GI50 (OVCAR-3 ovarian): 16.5 µM
- TGI (OVCAR-3 ovarian): 45.4 µM
- GI50 (OVCAR-4 ovarian): 34.9 µM
- TGI (OVCAR-4 ovarian): > 100 µM
- GI50 (OVCAR-5 ovarian): 78.4 µM
- TGI (OVCAR-5 ovarian): > 100 µM
- GI50 (OVCAR-8 ovarian): 35 µM
- TGI (OVCAR-8 ovarian): > 100 µM
- GI50 (PC-3 prostate): > 100 µM
- TGI (PC-3 prostate): > 100 µM
- GI50 (RXF 393 renal): 49.4 µM
- TGI (RXF 393 renal): > 100 µM
- GI50 (SF-268 CNS): 28.4 µM
- TGI (SF-268 CNS): 81.5 µM
- GI50 (SF-295 CNS): 24.2 µM
- TGI (SF-295 CNS): 87.8 µM
- GI50 (SK-MEL-2 melanoma): 63.4 µM
- TGI (SK-MEL-2 melanoma): > 100 µM
- GI50 (SK-MEL-28 melanoma): 24.1 µM
- TGI (SK-MEL-28 melanoma): > 100 µM
- GI50 (SK-MEL-5 melanoma): 21.8 µM
- TGI (SK-MEL-5 melanoma): 45.2 µM
- GI50 (SK-OV-3 ovarian): 30.8 µM
- TGI (SK-OV-3 ovarian): 99.5 µM
- GI50 (SN12C renal): 29.4 µM
- TGI (SN12C renal): 81.3 µM
- GI50 (SNB-19 CNS): 49.2 µM
- TGI (SNB-19 CNS): > 100 µM
- GI50 (SR leukemia): 15.3 µM
- TGI (SR leukemia): 47.7 µM
- GI50 (SW-620 colon): 71.2 µM
- TGI (SW-620 colon): > 100 µM
- GI50 (T-47D breast): 22.6 µM
- TGI (T-47D breast): > 100 µM
- GI50 (TK-10 renal): 33.6 µM
- TGI (TK-10 renal): 81.3 µM
- GI50 (U251 CNS): 29.1 µM
- TGI (U251 CNS): 80.8 µM
- GI50 (UACC-257 melanoma): 49.3 µM
- TGI (UACC-257 melanoma): > 100 µM
- GI50 (UACC-62 melanoma): 30.7 µM
- TGI (UACC-62 melanoma): 98.8 µM
- GI50 (UO-31 renal): 38.5 µM
- TGI (UO-31 renal): > 100 µM
